Test results: ChEMBL document CHEMBL4043204, “meso-Dihydroguaiaretic acid derivatives with antibacterial and antimycobacterial activity” (Bioorg Med Chem, 2017)
Values after ≈ are worked out from the molar mass of the structure shown. Active and inactive are the calls of the source. The rule behind the calls is not given here.

What was measured:
Klebsiella pneumoniae [1] = assay: Antibacterial activity against NDM-1 positive Klebsiella pneumoniae (14-3335) assessed as inhibition of microbial growth up to 50 ug/ml incubated for 24 hrs by microdilution assay; assay type: functional
[2] = system: Mycobacterium tuberculosis; assay: Antimycobacterial activity against Mycobacterium tuberculosis H37Rv ATCC 27294 assessed as inhibition of mycobacterial growth incubated for 2 weeks by MABA method; assay type: functional; conditions: for MIC: Mycobacterium tuberculosis, H37Rv ATCC 27294, 336 h
Providencia rettgeri = assay: Antibacterial activity against NDM-1 positive Providencia rettgeri assessed as inhibition of microbial growth up to 50 ug/ml incubated for 24 hrs by microdilution assay; assay type: functional
Escherichia coli [3] = assay: Antibacterial activity against oxacillin-resistant Escherichia coli OXA-48 assessed as inhibition of microbial growth up to 50 ug/ml incubated for 24 hrs by microdilution assay; assay type: functional
[4] = system: Mycobacterium tuberculosis; assay: Antimycobacterial activity against Mycobacterium tuberculosis H37Rv ATCC 27294 assessed as inhibition of mycobacterial growth up to 50 ug/ml incubated for 2 weeks by MABA method; assay type: functional
[5] = system: Stenotrophomonas maltophilia; assay: Antibacterial activity against trimethoprim-sulfamethoxazole-resistant Stenotrophomonas maltophilia assessed as inhibition of microbial growth up to 50 ug/ml incubated for 24 hrs by microdilution assay; assay type: functional
Escherichia coli [6] = assay: Antibacterial activity against extended-spectrum beta-lactamase-positive Escherichia coli (14-2081) assessed as inhibition of microbial growth up to 50 ug/ml incubated for 24 hrs by microdilution assay; assay type: functional
Pseudomonas aeruginosa = assay: Antibacterial activity against carbapenem-resistant Pseudomonas aeruginosa (13-1391) assessed as inhibition of microbial growth up to 50 ug/ml incubated for 48 hrs by microdilution assay; assay type: functional
Klebsiella pneumoniae [7] = assay: Antibacterial activity against extended-spectrum beta-lactamase-positive Klebsiella pneumoniae (14-2081) assessed as inhibition of microbial growth up to 50 ug/ml incubated for 24 hrs by microdilution assay; assay type: functional
Acinetobacter baumannii = assay: Antibacterial activity against carbapenem-resistant Acinetobacter baumannii (12-666) assessed as inhibition of microbial growth up to 50 ug/ml incubated for 24 hrs by microdilution assay; assay type: functional
[8] = Selectivity index, ratio of IC50 for cytotoxicity against African green monkey Vero cells to MIC for antibacterial activity against methicillin-resistant Staphylococcus aureus (14-2095)
Enterococcus faecium = assay: Antibacterial activity against vancomycin-resistant Enterococcus faecium (10-984) assessed as inhibition of microbial growth incubated for 24 hrs by microdilution assay; assay type: functional
Vero = assay: Cytotoxicity against African green monkey Vero cells assessed as reduction in cell viability incubated for 24 hrs by trypan blue staining based assay; conditions: Chlorocebus sabaeus
[9] = Selectivity index, ratio of IC50 for cytotoxicity against African green monkey Vero cells to MIC for Mycobacterium tuberculosis H37Rv ATCC 27294; assay type: toxicity, cell-based; conditions: read-out: Selectivity Index
[10] = system: Staphylococcus epidermidis; assay: Antibacterial activity against linezolid-resistant Staphylococcus epidermidis (14-583) assessed as inhibition of microbial growth incubated for 24 hrs by microdilution assay; assay type: functional
[11] = system: Staphylococcus haemolyticus; assay: Antibacterial activity against linezolid-resistant Staphylococcus haemolyticus 2975 assessed as inhibition of microbial growth incubated for 24 hrs by microdilution assay; assay type: functional; conditions: Staphylococcus haemolyticus, 2975, 24 h
Staphylococcus aureus = assay: Antibacterial activity against methicillin-resistant Staphylococcus aureus (14-2095) assessed as inhibition of microbial growth incubated for 24 hrs by microdilution assay; assay type: functional

With COc1cc(C[C@@H](C)[C@@H](C)Cc2ccc(OC(=O)c3ccc(Br)cc3)c(OC)c2)ccc1OC(=O)c1ccc(Br)cc1 the Activity (Klebsiella pneumoniae [1]) was “inactive”, the “-logMIC” value [2] was 4.09 and the Activity (Providencia rettgeri) was “inactive”. The Activity (Escherichia coli [3]) was “inactive”, the “growth inhibition (GI)” value [4] was “inactive” and the Activity [5] was “inactive”. For the same compound, the Activity (Escherichia coli [6]) was “inactive”, the Activity (Pseudomonas aeruginosa) was “inactive” and the Activity (Klebsiella pneumoniae [7]) was “inactive”. The Activity (Acinetobacter baumannii) was “inactive”.

For COc1cc(C[C@@H](C)[C@@H](C)Cc2ccc(OCCN3CCOCC3)c(OC)c2)ccc1OCCN1CCOCC1, the Activity (Klebsiella pneumoniae [1]) was “inactive”, the “Selectivity Index” value [8] was 1.43 and the MIC (Enterococcus faecium) was greater than 50 µg/mL. The MIC [2] was 25 µg/mL (≈ 44.9 µM), the Activity (Providencia rettgeri) was “inactive” and the IC50 (Vero) was 71.6 µg/mL (≈ 129 µM). The Activity (Escherichia coli [3]) was “inactive”, the selectivity ratio [9] was 2.87 and the MIC [10] was greater than 50 µg/mL. The MIC [11] was greater than 50 µg/mL, the Activity [5] was “inactive” and the MIC (Staphylococcus aureus) was 50 µg/mL. The Activity (Escherichia coli [6]) was “inactive”, the Activity (Pseudomonas aeruginosa) was “inactive” and the Activity (Klebsiella pneumoniae [7]) was “inactive”. For the same compound, the Activity (Acinetobacter baumannii) was “inactive”.

For COc1cc(C[C@@H](C)[C@@H](C)Cc2ccc(OC(=O)c3ccccc3)c(OC)c2)ccc1OC(=O)c1ccccc1, the Activity (Klebsiella pneumoniae [1]) was “inactive”, the “-logMIC” value [2] was 4.14 and the Activity (Providencia rettgeri) was “inactive”. The Activity (Escherichia coli [3]) was “inactive”, the “growth inhibition (GI)” value [4] was “inactive” and the Activity [5] was “inactive”. The Activity (Escherichia coli [6]) was “inactive”, the Activity (Pseudomonas aeruginosa) was “inactive” and the Activity (Klebsiella pneumoniae [7]) was “inactive”. For the same compound, the Activity (Acinetobacter baumannii) was “inactive”.

With COc1cc(C[C@@H](C)[C@@H](C)Cc2ccc(OCCN3CCCCC3)c(OC)c2)ccc1OCCN1CCCCC1 the Activity (Klebsiella pneumoniae [1]) was “inactive”, the “Selectivity Index” value [8] was 1.46 and the MIC (Enterococcus faecium) was 50 µg/mL. The MIC [2] was 3.12 µg/mL (≈ 5.65 µM), the Activity (Providencia rettgeri) was “inactive” and the IC50 (Vero) was 73.2 µg/mL (≈ 132 µM). The Activity (Escherichia coli [3]) was “inactive”, the selectivity ratio [9] was 23.4 and the MIC [10] was greater than 50 µg/mL. For the same compound, the MIC [11] was 50 µg/mL, the Activity [5] was “inactive” and the MIC (Staphylococcus aureus) was 50 µg/mL. For the same compound, the Activity (Escherichia coli [6]) was “inactive”, the Activity (Pseudomonas aeruginosa) was “inactive” and the Activity (Klebsiella pneumoniae [7]) was “inactive”. The Activity (Acinetobacter baumannii) was “inactive”.

With CCCCCCCCCCCCCCCCCC(=O)Oc1ccc(C[C@H](C)[C@H](C)Cc2ccc(O)c(OC)c2)cc1OC (racemic) the Activity (Klebsiella pneumoniae [1]) was “inactive”, the “-logMIC” value [2] was 3.84 and the Activity (Providencia rettgeri) was “inactive”. The Activity (Escherichia coli [3]) was “inactive”, the “growth inhibition (GI)” value [4] was “inactive” and the Activity [5] was “inactive”. The Activity (Escherichia coli [6]) was “inactive”, the Activity (Pseudomonas aeruginosa) was “inactive” and the Activity (Klebsiella pneumoniae [7]) was “inactive”. For the same compound, the Activity (Acinetobacter baumannii) was “inactive”.

In the case of COc1cc(C[C@@H](C)[C@@H](C)Cc2ccc(OCCN3CCCCC3)c(OC)c2)ccc1O (racemic), the Activity (Klebsiella pneumoniae [1]) is reported as “inactive”, the “Selectivity Index” value [8] is reported as 1.25 and the MIC (Enterococcus faecium) is reported as 50 µg/mL. The MIC [2] was 12.5 µg/mL (≈ 28.3 µM), the Activity (Providencia rettgeri) was “inactive” and the IC50 (Vero) was 62.6 µg/mL (≈ 142 µM). The Activity (Escherichia coli [3]) was “inactive”, the selectivity ratio [9] was 5.01 and the MIC [10] was 50 µg/mL. For the same compound, the MIC [11] was 50 µg/mL, the Activity [5] was “inactive” and the MIC (Staphylococcus aureus) was 50 µg/mL. The Activity (Escherichia coli [6]) was “inactive”, the Activity (Pseudomonas aeruginosa) was “inactive” and the Activity (Klebsiella pneumoniae [7]) was “inactive”. The Activity (Acinetobacter baumannii) was “inactive”.

With COc1cc(C[C@@H](C)[C@@H](C)Cc2ccc(OC(C)=O)c(OC)c2)ccc1O (racemic) the Activity (Klebsiella pneumoniae [1]) was “inactive”, the “Selectivity Index” value [8] was 4.46 and the MIC (Enterococcus faecium) was greater than 50 µg/mL. The “-logMIC” value [2] was 4.07, the MIC [2] was 50 µg/mL (≈ 134 µM) and the Activity (Providencia rettgeri) was “inactive”. For the same compound, the IC50 (Vero) was 112 µg/mL (≈ 300 µM), the Activity (Escherichia coli [3]) was “inactive” and the selectivity ratio [9] was 2.23. For the same compound, the MIC [10] was greater than 50 µg/mL, the MIC [11] was greater than 50 µg/mL and the Activity [5] was “inactive”. For the same compound, the MIC (Staphylococcus aureus) was 25 µg/mL, the Activity (Escherichia coli [6]) was “inactive” and the Activity (Pseudomonas aeruginosa) was “inactive”. For the same compound, the Activity (Klebsiella pneumoniae [7]) was “inactive” and the Activity (Acinetobacter baumannii) was “inactive”.

For CCCCCCCC/C=C\CCCCCCCC(=O)Oc1ccc(C[C@H](C)[C@H](C)Cc2ccc(O)c(OC)c2)cc1OC (racemic), the Activity (Klebsiella pneumoniae [1]) was “inactive”, the “-logMIC” value [2] was 4.51 and the Activity (Providencia rettgeri) was “inactive”. The Activity (Escherichia coli [3]) was “inactive”, the “growth inhibition (GI)” value [4] was “inactive” and the Activity [5] was “inactive”. The Activity (Escherichia coli [6]) was “inactive”, the Activity (Pseudomonas aeruginosa) was “inactive” and the Activity (Klebsiella pneumoniae [7]) was “inactive”. The Activity (Acinetobacter baumannii) was “inactive”.

With CCCC(=O)Oc1ccc(C[C@H](C)[C@H](C)Cc2ccc(O)c(OC)c2)cc1OC (racemic) the Activity (Klebsiella pneumoniae [1]) was “inactive”, the “-logMIC” value [2] was 3.94 and the Activity (Providencia rettgeri) was “inactive”. For the same compound, the Activity (Escherichia coli [3]) was “inactive”, the “growth inhibition (GI)” value [4] was “inactive” and the Activity [5] was “inactive”. For the same compound, the Activity (Escherichia coli [6]) was “inactive”, the Activity (Pseudomonas aeruginosa) was “inactive” and the Activity (Klebsiella pneumoniae [7]) was “inactive”. For the same compound, the Activity (Acinetobacter baumannii) was “inactive”.

For COc1cc(C[C@@H](C)[C@@H](C)Cc2ccc(OC(=O)c3cnccn3)c(OC)c2)ccc1O (racemic), the Activity (Klebsiella pneumoniae [1]) was “inactive”, the “Selectivity Index” value [8] was 0.87 and the MIC (Enterococcus faecium) was greater than 50 µg/mL. For the same compound, the “-logMIC” value [2] was 4.07, the MIC [2] was 50 µg/mL (≈ 115 µM) and the Activity (Providencia rettgeri) was “inactive”. For the same compound, the IC50 (Vero) was 43.3 µg/mL (≈ 99.3 µM), the Activity (Escherichia coli [3]) was “inactive” and the selectivity ratio [9] was 0.86. The MIC [10] was greater than 50 µg/mL, the MIC [11] was greater than 50 µg/mL and the Activity [5] was “inactive”. For the same compound, the MIC (Staphylococcus aureus) was 50 µg/mL, the Activity (Escherichia coli [6]) was “inactive” and the Activity (Pseudomonas aeruginosa) was “inactive”. For the same compound, the Activity (Klebsiella pneumoniae [7]) was “inactive” and the Activity (Acinetobacter baumannii) was “inactive”.

With CCCCCCCCCCCCCCCC(=O)Oc1ccc(C[C@H](C)[C@H](C)Cc2ccc(O)c(OC)c2)cc1OC (racemic) the Activity (Klebsiella pneumoniae [1]) was “inactive”, the MIC (Enterococcus faecium) was greater than 50 µg/mL and the “-logMIC” value [2] was 4.54. The Activity (Providencia rettgeri) was “inactive”, the Activity (Escherichia coli [3]) was “inactive” and the “growth inhibition (GI)” value [4] was “inactive”. For the same compound, the MIC [10] was greater than 50 µg/mL, the MIC [11] was greater than 50 µg/mL and the Activity [5] was “inactive”. The MIC (Staphylococcus aureus) was 50 µg/mL, the Activity (Escherichia coli [6]) was “inactive” and the Activity (Pseudomonas aeruginosa) was “inactive”. The Activity (Klebsiella pneumoniae [7]) was “inactive” and the Activity (Acinetobacter baumannii) was “inactive”.

For COc1cc(C[C@@H](C)[C@@H](C)Cc2ccc(OC)c(OC)c2)ccc1O (racemic), the Activity (Klebsiella pneumoniae [1]) was “inactive”, the “Selectivity Index” value [8] was 1.91 and the MIC (Enterococcus faecium) was greater than 50 µg/mL. The “-logMIC” value [2] was 3.94, the MIC [2] was 50 µg/mL (≈ 145 µM) and the Activity (Providencia rettgeri) was “inactive”. The IC50 (Vero) was 47.8 µg/mL (≈ 139 µM), the Activity (Escherichia coli [3]) was “inactive” and the selectivity ratio [9] was 0.96. The MIC [10] was greater than 50 µg/mL, the MIC [11] was greater than 50 µg/mL and the Activity [5] was “inactive”. The MIC (Staphylococcus aureus) was 25 µg/mL, the Activity (Escherichia coli [6]) was “inactive” and the Activity (Pseudomonas aeruginosa) was “inactive”. The Activity (Klebsiella pneumoniae [7]) was “inactive” and the Activity (Acinetobacter baumannii) was “inactive”.

With C[C@H]1COc2c(N3CCN(C)CC3)c(F)cc3c(=O)c(C(=O)O)cn1c23.C[C@H]1COc2c(N3CCN(C)CC3)c(F)cc3c(=O)c(C(=O)O)cn1c23.O [LEVOFLOXACIN] the “Selectivity Index” value [8] was 93.81, the MIC (Enterococcus faecium) was greater than 50 µg/mL and the MIC [2] was 0.078 µg/mL. It also gave an IC50 (Vero) of 293 µg/mL, an MIC [10] of 12.5 µg/mL and an MIC [11] of 12.5 µg/mL. The MIC (Staphylococcus aureus) was 3.12 µg/mL.

For COc1ccc(C[C@@H](C)[C@@H](C)Cc2ccc(OC)c(OC)c2)cc1OC [TERAMEPROCOL], the Activity (Klebsiella pneumoniae [1]) was “inactive”, the “-logMIC” value [2] was 4.35 and the Activity (Providencia rettgeri) was “inactive”. For the same compound, the Activity (Escherichia coli [3]) was “inactive”, the “growth inhibition (GI)” value [4] was “inactive” and the Activity [5] was “inactive”. For the same compound, the Activity (Escherichia coli [6]) was “inactive”, the Activity (Pseudomonas aeruginosa) was “inactive” and the Activity (Klebsiella pneumoniae [7]) was “inactive”. The Activity (Acinetobacter baumannii) was “inactive”.
